14 compounds from US10894807B2 (Siemens Medical Solutions USA, Inc., priority 2011, dated 2021) can be followed below.

The target of one experiment is human PSMA (Homo sapiens (Human), UniProt Q04609). In words: Enzymatic assay for in vitro evaluation of PSMA inhibitors (fluorescent assay of PSMA activity, NAAG substrate, OPA detection of glutamate).
Sequence of human PSMA (Q04609 whole entry): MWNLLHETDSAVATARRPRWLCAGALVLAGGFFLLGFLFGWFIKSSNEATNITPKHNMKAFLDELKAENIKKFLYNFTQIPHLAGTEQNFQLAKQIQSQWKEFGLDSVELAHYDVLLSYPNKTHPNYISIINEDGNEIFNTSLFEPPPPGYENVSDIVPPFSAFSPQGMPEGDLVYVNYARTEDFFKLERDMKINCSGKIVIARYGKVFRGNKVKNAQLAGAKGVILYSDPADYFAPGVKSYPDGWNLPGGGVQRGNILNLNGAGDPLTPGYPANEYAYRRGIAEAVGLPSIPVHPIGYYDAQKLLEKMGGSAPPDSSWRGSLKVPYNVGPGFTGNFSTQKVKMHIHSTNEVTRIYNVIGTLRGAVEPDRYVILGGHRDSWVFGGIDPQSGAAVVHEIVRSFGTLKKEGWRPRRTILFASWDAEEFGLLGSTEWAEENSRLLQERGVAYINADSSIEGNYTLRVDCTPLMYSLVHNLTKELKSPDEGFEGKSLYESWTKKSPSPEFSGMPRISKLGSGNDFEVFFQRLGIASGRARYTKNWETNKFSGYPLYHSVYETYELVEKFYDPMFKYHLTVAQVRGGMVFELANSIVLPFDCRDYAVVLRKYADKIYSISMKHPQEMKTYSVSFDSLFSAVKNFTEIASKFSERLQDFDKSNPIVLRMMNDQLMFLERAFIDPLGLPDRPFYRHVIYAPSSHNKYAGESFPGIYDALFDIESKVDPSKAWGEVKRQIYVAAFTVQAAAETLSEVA
Conditions: not given
The format is biochemical.
For orientation: Ki means the equilibrium dissociation constant of an inhibitor or competing ligand from its target. A higher Ki goes with lower affinity. `CN(C(=O)N[C@@H](CCC(=O)O)C(=O)O)[C@@H](CCCCNC(=O)CCCc1ccc(-n2cc(CCCF)nn2)cc1)C(=O)O` [P103] showed a Ki of 235 nM.
The compound `O=C(O)CC[C@H](NC(=O)N[C@@H](Cc1ccc(NC(=O)CCC(CCC(=O)Nc2ccc(C[C@H](NC(=O)N[C@@H](CCC(=O)O)C(=O)O)C(=O)O)cc2)NC(=O)c2ccc(-n3cc(CCCF)nn3)cc2)cc1)C(=O)O)C(=O)O` [P280, (2S,2′S)-2,2′(((((1S,1′S)(((4-(4-(4-(3-Fluoropropyl)-1H-1,2,3-triazol-1-yl)-benzamido)-heptanedioyl)-bis(azanediyl))-bis(4,1-phenylene))-bis(1-carboxyethane-2,1-diyl))-bis(azanediyl))-bis(carbonyl))-bis(azanediyl))-dipentanedioic Acid] returned a Ki of 0.9 nM.
Still for that read-out and setting: the result for `O=C(O)CC[C@H](NC(=O)N[C@@H](CCCCNc1nc(-c2cccc(NC(=O)CCOCCOCCOCCOCCNC(=O)Cn3cc(CCCF)nn3)c2)cs1)C(=O)O)C(=O)O` [P254, (S)-2-(3-((S)-1-Carboxy-5-(4-(3-(1-(4-(3-fluoropropyl)-1H-1,2,3-triazol-1-yl)-2-oxo-6,9,12,15-tetraoxa-3-azaoctadecanamido)phenyl)thiazol-2-ylamino)pentyl)ureido)-pentanedioic Acid] reads 0.4 nM.

Staying with this experiment, now noted: 1.0 μM.
Take `O=C(O)CC[C@H](NC(=O)C[C@@H](NC(=O)Cn1cc(CCCF)nn1)C(=O)O)C(=O)O` [P228, (S)-2-((R)-3-Carboxy-3-(2-(4-(3-fluoropropyl)-1H-1,2,3-triazol-1-yl)acetamido)propanamido)-pentanedioic Acid]: the “PSMA Blkg % (1.0 μM)” value was 24%.
On to `O=C(O)CC[C@H](NC(=O)N[C@@H](CCCCNc1ccc([N+](=O)[O-])c(F)n1)C(=O)O)C(=O)O` [P269, (S)-2-(3-((S)-1-Carboxy-5-((6-fluoro-5-nitropyridin-2-yl)amino)pentyl)ureido)pentanedioic Acid], for which the “PSMA Blkg % (1.0 μM)” value is 66%.
Same read-out and setting: the result for `O=C(O)CC[C@H](NC(=O)N[C@@H](CCCCNc1nc(-c2cccc(NC(=O)CCOCCOCCOCCOCCNC(=O)Cn3cc(CCCF)nn3)c2)cs1)C(=O)O)C(=O)O` [P254, (S)-2-(3-((S)-1-Carboxy-5-(4-(3-(1-(4-(3-fluoropropyl)-1H-1,2,3-triazol-1-yl)-2-oxo-6,9,12,15-tetraoxa-3-azaoctadecanamido)phenyl)thiazol-2-ylamino)pentyl)ureido)-pentanedioic Acid] reads 95%.

Still in this experiment, the particulars now being: compound at 10 μM.
As for `CN(C(=O)[C@H](CC(=O)O)NC(=O)c1ccc(F)cc1)[C@@H](CCC(=O)O)C(=O)O` [P163, (S)-2-((S)-3-Carboxy-2-(4-fluorobenzamido)-N-methylpropanamido)pentanedioic Acid], the “PSMA Blkg % (10 μM)” value stood at 0%.
Same read-out and setting: the result for `O=C(O)CCC(NC(=O)N1CC(NC(=O)CCCCn2cc(CCCF)nn2)C[C@H]1C(=O)O)C(=O)O` (stereo partly drawn) [P081, 2-((2S)-2-Carboxy-4-(5-(4-(3-fluoropropyl)-1H-1,2,3-triazol-1-yl)pentanamido)pyrrolidine-1-carboxamido)pentanedioic Acid] reads 25%; that for `O=C(Cn1cc(CCCF)nn1)NCCCC[C@H](NC(=O)Nc1cc(C(=O)O)cc(C(=O)O)c1)C(=O)O` [P007, (S)-5-(3-(1-Carboxy-5-(2-(4-(3-fluoropropyl)-1H-1,2,3-triazol-1-yl)acetamido)pentyl)-ureido)isophthalic Acid], 0%.
For `O=C(O)CC[C@H](NC(=O)N[C@@H](CCCCNC(=O)Cn1cc(Cn2ccnc2[N+](=O)[O-])nn1)C(=O)O)C(=O)O` [P043, (S)-2-(3-((S)-1-Carboxy-5-(2-(4-2((2-nitro-1H-imidazo-1-yl)-methyl)-1H-1,2,3-triazol-1-yl)acetamido)pentyl)ureido)pentanedioic Acid], the “PSMA Blkg % (10 μM)” value was 77%.
As to `O=C(O)CC[C@@H](C(=O)O)N1C(=O)CC(=O)N([C@@H](CCCCNC(=O)Cn2cc(CCCF)nn2)C(=O)O)C1=O` [P074, (S)-2-(3-((S)-1-Carboxy-5-(2-(4-(3-fluoropropyl)-1H-1,2,3-triazol-1-yl)acetamido)pentyl)-2,4,6-trioxotetrahydropyrimidin-1(2H)-yl)pentanedioic Acid], the “PSMA Blkg % (10 μM)” value is recorded as 10%.
Consider `[N-]=[N+]=NCCCCC(=O)NCCCC[C@@H](C(=O)O)N1C(=O)CC(=O)N([C@@H](CCC(=O)O)C(=O)O)C1=O` [P073, (S)-2-(3-((S)-5-(5-Azidopentanamido)-1-carboxypentyl)-2,4,6-trioxotetrahydropyrimidin-1(2H)-yl)pentanedioic Acid], for which the “PSMA Blkg % (10 μM)” value is recorded as 2%.
For `CN(C(=O)N[C@@H](CCC(=O)O)C(=O)O)[C@@H](CCCCNC(=O)CCCc1ccc(-n2cc(CCCF)nn2)cc1)C(=O)O` [P103], the “PSMA Blkg % (10 μM)” value is 91%.
Same read-out and setting: the result for `CCC1(CC)C(=O)N([C@@H](CCCCn2cc(COCCOCCNc3ccc([N+](=O)[O-])cc3[N+](=O)[O-])nn2)C(=O)O)C(=O)N([C@@H](CCC(=O)O)C(=O)O)C1=O` [P151, (S)-2-(3-((S)-1-Carboxy-5-(4-((2-(2-(2,4-dinitrophenylamino)ethoxy)ethoxy)methyl)-1H-1,2,3-triazol-1-yl)pentyl)-5,5-diethyl-2,4,6-trioxotetrahydropyrimidin-1(2H)-yl)pentanedioic Acid] reads 17%; that for `O=C(O)CC[C@@H](C(=O)O)N1C(=O)CC(=O)N([C@@H](CCCCNC(=O)CCCc2ccc(-n3cc(CCCF)nn3)cc2)C(=O)O)C1=O` [P094, (S)-2-(3-((S)-1-Carboxy-5-(4-(4-(4-(3-fluoropropyl)-1H-1,2,3-triazol-1-yl)phenyl)butanamido)pentyl)-2,4,6-trioxotetrahydropyrimidin-(2H)-yl)pentanedioic Acid], 7%.
In the case of `CC(C)(C)OC(=O)NCCCCN(CC(=O)N[C@@H](CCC(=O)O)C(=O)O)C(=O)NO` [P042, (S)-2-(2-(1-(4-(tert-Butoxycarbonylamino)butyl)-3-hydroxyureido)acetamido) pentanedioic Acid], the “PSMA Blkg % (10 μM)” value is on record as 0%.
